Measured values: the CheMixHub viscosity set

Assay: xn = mol fraction of the nth substance listed

NC=O + OCCO
viscosity [mPa·s]
Conditions | 293.15 K | 298.15 K | 303.15 K | 308.15 K | 313.15 K | 318.15 K
100 kPa, x1 = 0.1003 | 16.54 | 13.52 | 11.1 | – | – | –
100 kPa, x1 = 0.2002 | 13.55 | 10.99 | 9.12 | – | – | –
100 kPa, x1 = 0.299 | 11.22 | 8.878 | 7.232 | – | – | –
100 kPa, x1 = 0.3975 | 9.55 | 7.61 | 6.151 | – | – | –
100 kPa, x1 = 0.5027 | 7.99 | 6.541 | 5.273 | – | – | –
100 kPa, x1 = 0.6014 | 6.85 | 5.592 | 4.603 | – | – | –
100 kPa, x1 = 0.7027 | 5.827 | 4.71 | 3.99 | – | – | –
100 kPa, x1 = 0.7999 | 4.96 | 4.15 | 3.647 | – | – | –
100 kPa, x1 = 0.9014 | 4.413 | 3.817 | 3.402 | – | – | –
101 kPa, x1 = 0.0612 | 17.53 | 14.25 | 11.64 | 9.225 | 7.801 | 6.584
101 kPa, x1 = 0.1204 | 15.35 | 12.26 | 9.875 | 7.684 | 6.506 | 5.505
101 kPa, x1 = 0.1859 | 13.53 | 10.7 | 8.482 | 6.488 | 5.384 | 4.554
101 kPa, x1 = 0.3302 | 10.35 | 8.058 | 6.301 | 4.664 | 3.8 | 3.156
101 kPa, x1 = 0.4517 | 8.301 | 6.445 | 5.002 | 3.702 | 3.055 | 2.554
101 kPa, x1 = 0.5643 | 6.692 | 5.306 | 4.172 | 3.206 | 2.716 | 2.379
101 kPa, x1 = 0.6596 | 5.526 | 4.526 | 3.708 | 2.947 | 2.556 | 2.322
101 kPa, x1 = 0.7454 | 4.685 | 4.003 | 3.403 | 2.808 | 2.476 | 2.292
101 kPa, x1 = 0.8195 | 4.186 | 3.721 | 3.234 | 2.753 | 2.45 | 2.271
101 kPa, x1 = 0.8883 | 3.908 | 3.526 | 3.126 | 2.727 | 2.438 | 2.251
101 kPa, x1 = 0.9491 | 3.714 | 3.39 | 3.025 | 2.692 | 2.425 | 2.236
101 kPa, x2 = 0.0761 | – | – | – | 2.392 | – | –
101 kPa, x2 = 0.1538 | – | – | – | 2.439 | – | –
101 kPa, x2 = 0.2311 | – | – | – | 2.487 | – | –
101 kPa, x2 = 0.3245 | – | – | – | 2.636 | – | –
101 kPa, x2 = 0.4125 | – | – | – | 2.996 | – | –
101 kPa, x2 = 0.5236 | – | – | – | 4.026 | – | –
101 kPa, x2 = 0.6337 | – | – | – | 5.164 | – | –
101 kPa, x2 = 0.7468 | – | – | – | 6.594 | – | –
101 kPa, x2 = 0.8596 | – | – | – | 8.193 | – | –
